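Here, GI50 denotes the concentration required for 50% inhibition of growth. TGI denotes the concentration required for complete inhibition of growth.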
Key:
Assay in all cases: NCI-60 cell line screen, 384-well format
NCI-H226 lung = tested on: NCI-H226 lung
786-0 renal = tested on: 786-0 renal
NCI-H522 lung = tested on: NCI-H522 lung
MOLT-4 leukemia = tested on: MOLT-4 leukemia
CAKI-1 renal = tested on: CAKI-1 renal
PC-3 prostate = tested on: PC-3 prostate
K-562 leukemia = tested on: K-562 leukemia
NCI-H322M lung = tested on: NCI-H322M lung
SR leukemia = tested on: SR leukemia
RXF 393 renal = tested on: RXF 393 renal
EKVX NSCLC = tested on: EKVX NSCLC
A498 renal = tested on: A498 renal
HS 578T breast = tested on: HS 578T breast
UACC-62 melanoma = tested on: UACC-62 melanoma
SK-MEL-28 melanoma = tested on: SK-MEL-28 melanoma
SF-539 CNS = tested on: SF-539 CNS
COLO 205 colon = tested on: COLO 205 colon
SNB-75 CNS = tested on: SNB-75 CNS
SNB-19 CNS = tested on: SNB-19 CNS
IGROV1 ovarian = tested on: IGROV1 ovarian
UACC-257 melanoma = tested on: UACC-257 melanoma
OVCAR-5 ovarian = tested on: OVCAR-5 ovarian
MALME-3M melanoma = tested on: MALME-3M melanoma
MDA-MB-231 breast = tested on: MDA-MB-231 breast
ACHN renal = tested on: ACHN renal
KM12 colon = tested on: KM12 colon
NCI-H23 lung = tested on: NCI-H23 lung
NCI-H460 NSCLC = tested on: NCI-H460 NSCLC
SF-295 CNS = tested on: SF-295 CNS
U251 glioblastoma = tested on: U251 glioblastoma
M14 melanoma = tested on: M14 melanoma
T-47D breast = tested on: T-47D breast
OVCAR-3 ovarian = tested on: OVCAR-3 ovarian
SK-OV-3 ovarian = tested on: SK-OV-3 ovarian
HCT-116 colon = tested on: HCT-116 colon
SN12C renal = tested on: SN12C renal
SW-620 colon = tested on: SW-620 colon
HT29 colon = tested on: HT29 colon
SF-268 CNS = tested on: SF-268 CNS
MDA-MB-435 melanoma = tested on: MDA-MB-435 melanoma
OVCAR-8 ovarian = tested on: OVCAR-8 ovarian
HL-60(TB) leukemia = tested on: HL-60(TB) leukemia
UO-31 renal = tested on: UO-31 renal
A549 NSCLC = tested on: A549 NSCLC
OVCAR-4 ovarian = tested on: OVCAR-4 ovarian
MCF7 breast = tested on: MCF7 breast
HOP-62 NSCLC = tested on: HOP-62 NSCLC
TK-10 renal = tested on: TK-10 renal
MDA-MB-468 breast = tested on: MDA-MB-468 breast
SK-MEL-2 melanoma = tested on: SK-MEL-2 melanoma
DU-145 prostate = tested on: DU-145 prostate
SK-MEL-5 melanoma = tested on: SK-MEL-5 melanoma
HCT-15 colon = tested on: HCT-15 colon
HOP-92 NSCLC = tested on: HOP-92 NSCLC

How did the GI50 (NCI-H226 lung) turn out when C[C@@H](COCCC(=O)N1CCN(c2ncc(C(F)(F)F)cn2)CC1)Nc1cn[nH]c(=O)c1C(F)(F)F was run?
The GI50 was 18.6 µM.

And the TGI (NCI-H226 lung)?
Its TGI is over 100 µM.

What about the GI50 ([…]-0 renal) of the same molecule?
Its GI50 is 41.5 µM.

And the TGI (786-0 renal)?
The TGI was over 100 µM.

And the GI50 (NCI-H522 lung)?
The GI50 was 31.8 µM.

What about the TGI (NCI-H522 lung) of the same molecule?
Its TGI is over 100 µM.

And the GI50 (MOLT-4 leukemia)?
Its GI50 is 1.53 µM.

What about the TGI (MOLT-4 leukemia) of the same molecule?
The TGI was 2.97 µM.

And the GI50 (CAKI-1 renal)?
The GI50 was 25.7 µM.

What about the TGI (CAKI-1 renal) of the same molecule?
The TGI was over 100 µM.

And the GI50 (PC-3 prostate)?
Its GI50 is 62.5 µM.

What about the TGI (PC-3 prostate) of the same molecule?
The TGI was over 100 µM.

What about the GI50 (K-562 leukemia) of the same molecule?
The GI50 was 10 µM.

What about the TGI (K-562 leukemia) of the same molecule?
Its TGI is over 100 µM.

What about the GI50 (NCI-H322M lung) of the same molecule?
Its GI50 is over 100 µM.

And the TGI (NCI-H322M lung)?
Its TGI is over 100 µM.

What about the GI50 (SR leukemia) of the same molecule?
The GI50 was 1.31 µM.

And the TGI (SR leukemia)?
The TGI was 2.67 µM.

And the TGI (RXF 393 renal)?
Its TGI is 20.3 µM.

And the GI50 (EKVX NSCLC)?
The GI50 was 63.6 µM.

What about the TGI (EKVX NSCLC) of the same molecule?
Its TGI is over 100 µM.

What about the GI50 (A498 renal) of the same molecule?
Its GI50 is over 100 µM.

What about the TGI (A498 renal) of the same molecule?
The TGI was over 100 µM.

And the GI50 (HS 578T breast)?
Its GI50 is 1.09 µM.

What about the TGI (HS 578T breast) of the same molecule?
The TGI was over 100 µM.

What about the GI50 (UACC-62 melanoma) of the same molecule?
Its GI50 is 32.3 µM.

What about the TGI (UACC-62 melanoma) of the same molecule?
The TGI was over 100 µM.

And the GI50 (SK-MEL-28 melanoma)?
The GI50 was over 100 µM.

What about the TGI (SK-MEL-28 melanoma) of the same molecule?
Its TGI is over 100 µM.

What about the GI50 (SF-539 CNS) of the same molecule?
Its GI50 is 3.28 µM.

What about the TGI (SF-539 CNS) of the same molecule?
Its TGI is 27.4 µM.

What about the GI50 (COLO 205 colon) of the same molecule?
Its GI50 is over 100 µM.

And the TGI (COLO 205 colon)?
Its TGI is over 100 µM.

And the GI50 (SNB-75 CNS)?
The GI50 was 12.4 µM.

And the TGI (SNB-75 CNS)?
Its TGI is over 100 µM.

And the GI50 (SNB-19 CNS)?
The GI50 was 48 µM.

And the TGI (SNB-19 CNS)?
Its TGI is over 100 µM.

What about the GI50 (IGROV1 ovarian) of the same molecule?
The GI50 was 69.1 µM.

And the TGI (IGROV1 ovarian)?
Its TGI is over 100 µM.

What about the GI50 (UACC-257 melanoma) of the same molecule?
The GI50 was 60.4 µM.

What about the TGI (UACC-257 melanoma) of the same molecule?
Its TGI is over 100 µM.

What about the GI50 (OVCAR-5 ovarian) of the same molecule?
Its GI50 is over 100 µM.

And the TGI (OVCAR-5 ovarian)?
Its TGI is over 100 µM.

What about the GI50 (MALME-3M melanoma) of the same molecule?
Its GI50 is over 100 µM.

And the TGI (MALME-3M melanoma)?
The TGI was over 100 µM.

And the GI50 (MDA-MB-231 breast)?
Its GI50 is over 100 µM.

And the TGI (MDA-MB-231 breast)?
The TGI was over 100 µM.

What about the GI50 (ACHN renal) of the same molecule?
The GI50 was 24 µM.

What about the TGI (ACHN renal) of the same molecule?
The TGI was over 100 µM.

What about the GI50 (KM12 colon) of the same molecule?
The GI50 was 3.66 µM.

And the TGI (KM12 colon)?
Its TGI is 82.7 µM.

What about the GI50 (NCI-H23 lung) of the same molecule?
The GI50 was 9.26 µM.

And the TGI (NCI-H23 lung)?
Its TGI is 52.1 µM.

And the GI50 (NCI-H460 NSCLC)?
Its GI50 is 16.1 µM.

What about the TGI (NCI-H460 NSCLC) of the same molecule?
The TGI was over 100 µM.

What about the GI50 (SF-295 CNS) of the same molecule?
The GI50 was 6.19 µM.

What about the TGI (SF-295 CNS) of the same molecule?
The TGI was 33.9 µM.

And the GI50 (U251 glioblastoma)?
The GI50 was 11.6 µM.

What about the TGI (U251 glioblastoma) of the same molecule?
Its TGI is 73.7 µM.

What about the GI50 (M14 melanoma) of the same molecule?
The GI50 was 46.8 µM.

And the TGI (M14 melanoma)?
Its TGI is over 100 µM.

And the GI50 (T-47D breast)?
The GI50 was 24.2 µM.

What about the TGI (T-47D breast) of the same molecule?
The TGI was over 100 µM.

And the GI50 (OVCAR-3 ovarian)?
Its GI50 is 35.5 µM.

And the TGI (OVCAR-3 ovarian)?
The TGI was over 100 µM.

And the GI50 (SK-OV-3 ovarian)?
Its GI50 is 13.9 µM.

And the TGI (SK-OV-3 ovarian)?
The TGI was 79.8 µM.

What about the GI50 (HCT-116 colon) of the same molecule?
The GI50 was 8.64 µM.

And the TGI (HCT-116 colon)?
The TGI was over 100 µM.

What about the GI50 (SN12C renal) of the same molecule?
Its GI50 is 5.17 µM.

What about the TGI (SN12C renal) of the same molecule?
The TGI was 51.9 µM.

And the GI50 (SW-620 colon)?
The GI50 was 0.187 µM.

And the TGI (SW-620 colon)?
The TGI was over 100 µM.

And the GI50 (HT29 colon)?
Its GI50 is over 100 µM.

What about the TGI (HT29 colon) of the same molecule?
The TGI was over 100 µM.

What about the GI50 (SF-268 CNS) of the same molecule?
The GI50 was 10.1 µM.

What about the TGI (SF-268 CNS) of the same molecule?
Its TGI is 73.1 µM.

And the GI50 (MDA-MB-435 melanoma)?
Its GI50 is over 100 µM.

And the TGI (MDA-MB-435 melanoma)?
The TGI was over 100 µM.

And the GI50 (OVCAR-8 ovarian)?
The GI50 was 14.7 µM.

What about the TGI (OVCAR-8 ovarian) of the same molecule?
Its TGI is over 100 µM.

What about the GI50 (HL-60(TB) leukemia) of the same molecule?
Its GI50 is 2.49 µM.

What about the TGI (HL-60(TB) leukemia) of the same molecule?
Its TGI is 16 µM.

What about the GI50 (UO-31 renal) of the same molecule?
The GI50 was 22.4 µM.

And the TGI (UO-31 renal)?
The TGI was over 100 µM.

And the GI50 (A549 NSCLC)?
Its GI50 is 41 µM.

And the TGI (A549 NSCLC)?
Its TGI is over 100 µM.

And the GI50 (OVCAR-4 ovarian)?
The GI50 was over 100 µM.

And the TGI (OVCAR-4 ovarian)?
Its TGI is over 100 µM.

What about the GI50 (MCF7 breast) of the same molecule?
The GI50 was 14.5 µM.

What about the TGI (MCF7 breast) of the same molecule?
Its TGI is over 100 µM.

What about the GI50 (HOP-62 NSCLC) of the same molecule?
Its GI50 is 4.01 µM.

And the TGI (HOP-62 NSCLC)?
Its TGI is 22.5 µM.

And the GI50 (TK-10 renal)?
Its GI50 is over 100 µM.

What about the TGI (TK-10 renal) of the same molecule?
Its TGI is over 100 µM.

And the GI50 (MDA-MB-468 breast)?
The GI50 was 3.72 µM.

And the TGI (MDA-MB-468 breast)?
The TGI was 23.5 µM.

And the GI50 (SK-MEL-2 melanoma)?
The GI50 was over 100 µM.

And the TGI (SK-MEL-2 melanoma)?
Its TGI is over 100 µM.

And the GI50 (DU-145 prostate)?
Its GI50 is 12.7 µM.

And the TGI (DU-145 prostate)?
The TGI was over 100 µM.

And the GI50 (SK-MEL-5 melanoma)?
The GI50 was 48.5 µM.

What about the TGI (SK-MEL-5 melanoma) of the same molecule?
The TGI was over 100 µM.

What about the GI50 (HCT-15 colon) of the same molecule?
The GI50 was 77.9 µM.

And the TGI (HCT-15 colon)?
The TGI was over 100 µM.

What about the GI50 (HOP-92 NSCLC) of the same molecule?
Its GI50 is 41.2 µM.

And the TGI (HOP-92 NSCLC)?
The TGI was over 100 µM.

Source: PubChem BioAssay (NCI)
